From BindingDB's records for patent US20250289799 (Jiangsu Yahong Meditech Co., 2025)

Molecular target: Ubiquitin carboxyl-terminal hydrolase 1/WD repeat-containing protein 48 (Homo sapiens, UniProt O94782+Q8TAF3)
Assay: In Vitro USP1  Inhibitory Activity
Protocol: Experimental Methods1) Preparation of 1× assay buffer: 1× assay buffer (modified Tris buffer) was prepared;2) Compound dilution: The compound was transferred to the assay plate by Echo.

Sequence of Ubiquitin carboxyl-terminal hydrolase 1/WD repeat-containing protein 48 (O94782 whole entry): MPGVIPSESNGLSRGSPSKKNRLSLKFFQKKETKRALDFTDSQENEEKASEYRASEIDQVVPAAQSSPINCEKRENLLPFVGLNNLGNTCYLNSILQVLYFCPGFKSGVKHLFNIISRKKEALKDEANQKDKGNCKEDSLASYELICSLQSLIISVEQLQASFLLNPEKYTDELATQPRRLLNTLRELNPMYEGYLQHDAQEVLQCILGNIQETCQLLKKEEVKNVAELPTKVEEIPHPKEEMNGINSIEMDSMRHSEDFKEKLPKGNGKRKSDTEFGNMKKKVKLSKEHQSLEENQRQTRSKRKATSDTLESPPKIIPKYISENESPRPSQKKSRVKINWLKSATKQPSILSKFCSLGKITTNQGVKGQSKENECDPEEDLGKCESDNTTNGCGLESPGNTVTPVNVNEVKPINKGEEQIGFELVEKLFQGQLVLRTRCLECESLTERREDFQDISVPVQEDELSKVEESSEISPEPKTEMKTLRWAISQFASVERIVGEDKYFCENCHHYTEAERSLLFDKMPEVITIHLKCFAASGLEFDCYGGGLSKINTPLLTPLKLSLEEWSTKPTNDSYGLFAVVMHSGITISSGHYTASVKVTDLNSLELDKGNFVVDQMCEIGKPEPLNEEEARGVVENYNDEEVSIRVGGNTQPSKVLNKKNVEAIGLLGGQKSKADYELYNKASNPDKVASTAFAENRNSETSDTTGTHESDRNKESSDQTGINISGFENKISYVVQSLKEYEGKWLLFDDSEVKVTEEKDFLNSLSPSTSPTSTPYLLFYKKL
Sequence of Ubiquitin carboxyl-terminal hydrolase 1/WD repeat-containing protein 48 (Q8TAF3 whole entry): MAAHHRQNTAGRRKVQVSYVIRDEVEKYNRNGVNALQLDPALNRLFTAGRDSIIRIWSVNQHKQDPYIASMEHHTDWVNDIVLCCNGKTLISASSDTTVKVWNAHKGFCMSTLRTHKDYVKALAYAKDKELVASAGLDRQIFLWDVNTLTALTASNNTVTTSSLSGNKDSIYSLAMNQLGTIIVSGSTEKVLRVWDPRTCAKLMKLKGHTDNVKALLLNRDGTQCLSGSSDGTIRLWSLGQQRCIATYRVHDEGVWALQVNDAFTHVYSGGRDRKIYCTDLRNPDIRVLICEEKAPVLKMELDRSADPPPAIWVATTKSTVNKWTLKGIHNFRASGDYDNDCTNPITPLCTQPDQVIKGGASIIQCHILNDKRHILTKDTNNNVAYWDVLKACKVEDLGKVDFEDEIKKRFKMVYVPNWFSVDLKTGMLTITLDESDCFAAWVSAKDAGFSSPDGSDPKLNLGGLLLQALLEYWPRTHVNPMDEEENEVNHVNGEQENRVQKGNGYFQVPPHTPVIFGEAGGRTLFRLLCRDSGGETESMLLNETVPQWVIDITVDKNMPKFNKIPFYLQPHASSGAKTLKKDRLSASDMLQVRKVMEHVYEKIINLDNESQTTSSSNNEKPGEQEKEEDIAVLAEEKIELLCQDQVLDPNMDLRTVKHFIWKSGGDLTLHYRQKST

| Compound | IC50 |
| --- | --- |
| COc1cnc(-c2ccccc2C(C)C)nc1N(C)Cc1ccc(-c2ccccn2)cc1 [US20250289799, Example 1] | 26 nM |
| COc1cnc(-c2ccccc2C(C)C)nc1N(C)CC1CCN(c2ccccn2)CC1 [US20250289799, Example 2] | 14 nM |
| COc1cnc(-c2ccccc2C(C)C)nc1N(C)Cc1ccc(-c2nc(C(F)(F)F)cn2C)cc1 [US20250289799, Example 3] | 2.8 nM |
| COc1cnc(-c2ccccc2C(C)C)nc1NCc1ccc(-c2nc(C(F)(F)F)cn2C)cc1 [US20250289799, Example 4] | 1.2 nM |
| COc1cnc(-c2ccccc2C(C)C)nc1NCC1CCN(c2ccccn2)CC1 [US20250289799, Example 5] | 7.6 nM |
| COc1cnc(-c2ccccc2C(C)C)nc1NCc1ccc(-n2nc(C(F)(F)F)cc2C)cc1 [US20250289799, Example 7] | 4.5 nM |
| COc1cnc(-c2c(OC)ncnc2C2CC2)nc1N(C)Cc1ccc(-c2nc(C(F)(F)F)cn2C)cc1 [US20250289799, Example 8] | 1.4 nM |
| COc1ncnc(C2CC2)c1-c1ncc2c(n1)N(Cc1ccc(-c3ccccn3)cc1)CCO2 [US20250289799, Example 9] | 35 nM |
| COc1ncnc(C2CC2)c1-c1ncc2c(n1)N(CC1CCN(c3ccccn3)CC1)CCO2 [US20250289799, Example 10] | 564 nM |
| COc1cnc(-c2ccccc2C(C)C)nc1NCc1ccc(-c2nccn3ccnc23)cc1 [US20250289799, Example 11] | 22 nM |
| Cc1cc(C(F)(F)F)nn1-c1ccc(CN2C(=O)COc3cnc(-c4ccccc4C(C)C)nc32)cc1 [US20250289799, Example 15] | 6.8 nM |
| CC(C)c1ccccc1-c1ncc(C(F)(F)F)c(NCc2ccc(-c3nc(C(F)(F)F)cn3C)cc2)n1 [US20250289799, Example 17] | 3.9 nM |
| COc1cnc(-c2c(OC)ncnc2C2CC2)nc1N(C)Cc1ccc(-c2ccccn2)cc1 [US20250289799, Example 19] | 24 nM |
| COc1ncnc(C2CC2)c1-c1ncc2c(n1)N(CC1CCN(c3nc(C(F)(F)F)cn3C)CC1)CCO2 [US20250289799, Example 20] | 91.5 nM |
| CC(C)c1ccccc1-c1ncc2c(n1)N(CC1CCN(c3nc(C(F)(F)F)cn3C)CC1)C(=O)CO2 [US20250289799, Example 24] | 8.8 nM |
| CC(C)c1ccccc1-c1ncc(C(F)(F)F)c(NCC2CCN(c3nc(C(F)(F)F)cn3C)CC2)n1 [US20250289799, Example 25] | 3.7 nM |
| COc1cnc(-c2c(OC)ncnc2C2CC2)nc1NCc1ccc(-n2nc(C(F)(F)F)cc2C)cc1 [US20250289799, Example 26] | 4.6 nM |
| COc1cnc(-c2c(OC)ncnc2C2CC2)nc1NCc1ccc(-c2nc(C(F)(F)F)cn2C)cc1 [US20250289799, Example 29] | 4.8 nM |
| COc1ncnc(C2CC2)c1-c1ncc2c(n1)N(CC1CCN(c3nc(C(F)(F)F)cn3C)CC1)C(=O)CO2 [US20250289799, Example 30] | 37 nM |
| CC(C)c1ccccc1-c1nc(NCc2ccc(-c3ccccn3)cc2)c2occc2n1 [US20250289799, Example 32] | 2.8 nM |
| CC(C)c1ccccc1-c1nc(NCc2ccc(-c3nc(C(F)(F)F)cn3C)cc2)c2occc2n1 [US20250289799, Example 33] | 1.2 nM |
| COc1ncnc(C2CC2)c1-c1nc(NCc2ccc(-c3nc(C(F)(F)F)cn3C)cc2)c2occc2n1 [US20250289799, Example 35] | 9.6 nM |

| Compound | IC50 |
| --- | --- |
| CC(C)c1ccccc1-c1nc(NCc2ccc(-c3ccccn3)cc2)c2[nH]ccc2n1 [US20250289799, Example 36] | 22.4 nM |
| COc1ncnc(C2CC2)c1-c1nc(NCc2ccc(-c3ccccn3)cc2)c2[nH]ccc2n1 [US20250289799, Example 37] | 51 nM |
| CC(C)c1ccccc1-c1nc(NCc2ccc(-c3nc(C(F)(F)F)cn3C)cc2)c2ncccc2n1 [US20250289799, Example 40] | 2.3 nM |
| COc1cnc(-c2ccccc2C(C)C)nc1NCc1ccc2c(c1)CN(C1CCC(=O)NC1=O)C2=O (stereo unspecified) [US20250289799, Example 41] | 1260 nM |
| COc1ncnc(C2CC2)c1-c1nc(NCc2ccc(-n3nc(C(F)(F)F)cc3C)cc2)c2occc2n1 [US20250289799, Example 50] | 5.2 nM |
| Cc1cc(C(F)(F)F)nn1-c1ccc(CNc2nc(-c3ccccc3C(C)C)nc3ccoc23)cc1 [US20250289799, Example 57] | 4.4 nM |
| COc1cnc(-c2ccccc2C(C)C)nc1N(C)CC1CCC(c2ccccn2)CC1 (stereo unspecified) [US20250289799, Example 61] | 11 nM |
| COc1cnc(-c2ccccc2C(C)C)nc1N(C)CC1CCN(c2nc(C(F)(F)F)cn2C)CC1 [US20250289799, Example 62] | 2.1 nM |
| COc1cnc(-c2ccccc2C(C)C)nc1NCC1CCC(c2ccccn2)CC1 (stereo unspecified) [US20250289799, Example 63] | 3.3 nM |
| COc1cnc(-c2ccccc2C(C)C)nc1NCc1ccc(-c2ccccn2)cc1 [US20250289799, Example 64] | 3.7 nM |
| COc1cnc(-c2ccccc2C(C)C)nc1NCC1CCN(c2nc(C(F)(F)F)cn2C)CC1 [US20250289799, Example 65] | 2.1 nM |
| COc1cnc(-c2ccccc2C(C)C)nc1NCc1ccc(-c2ccc(C)cn2)cc1 [US20250289799, Example 66] | 5.6 nM |
| COc1cnc(-c2ccccc2C(C)C)nc1NCc1ccc(OCc2ccccn2)cc1 [US20250289799, Example 67] | 5.3 nM |
| CCOCCOc1ccc(CNc2nc(-c3ccccc3C(C)C)ncc2OC)cc1 [US20250289799, Example 68] | 3.2 nM |
| COc1cc(CNc2nc(-c3ccccc3C(C)C)ncc2OC)ccc1-n1nc(C(F)(F)F)cc1C [US20250289799, Example 69] | 9.2 nM |
| CC(C)Oc1cnc(-c2ccccc2C(C)C)nc1N(C)CC1CCN(c2nc(C(F)(F)F)cn2C)CC1 [US20250289799, Example 70] | 19.4 nM |
| CC(C)Oc1cnc(-c2ccccc2C(C)C)nc1N(C)Cc1ccc(-c2nc(C(F)(F)F)cn2C)cc1 [US20250289799, Example 71] | 9.9 nM |
| CC(C)Oc1cnc(-c2ccccc2C(C)C)nc1NCC1CCN(c2nc(C(F)(F)F)cn2C)CC1 [US20250289799, Example 72] | 6.1 nM |
| CC(C)Oc1cnc(-c2ccccc2C(C)C)nc1NCc1ccc(-c2nc(C(F)(F)F)cn2C)cc1 [US20250289799, Example 73] | 3.6 nM |
| CC(C)Oc1cnc(-c2ccccc2C(C)C)nc1NCC12CCC(c3ccc(C(F)(F)F)cn3)(CC1)CC2 [US20250289799, Example 74] | 873 nM |
| CC(C)c1ccccc1-c1ncc(C(F)(F)F)c(NCC2CCN(c3nc(C(F)(F)F)cn3C)CC2)n1 [US20250289799, Example 75] | 3.7 nM |
| CC(C)c1ccccc1-c1ncc(C(F)(F)F)c(NCC2CCN(c3ccccn3)CC2)n1 [US20250289799, Example 76] | 30.1 nM |

| Compound | IC50 |
| --- | --- |
| CC(C)c1ccccc1-c1nc(NCc2ccc3c(c2)CCN(C)C3=O)c2occc2n1 [US20250289799, Example 77] | 28 nM |
| CC(C)c1ccccc1-c1nc(NCc2ccc3c(c2)CCN(C(C)C)C3=O)c2occc2n1 [US20250289799, Example 78] | 6.4 nM |
| CCOCCOc1ccc(CNc2nc(-c3ccccc3C(C)C)nc3ccoc23)cc1 [US20250289799, Example 79] | 4.5 nM |
| COC1CC(Oc2ccc(CNc3nc(-c4ccccc4C(C)C)nc4ccoc34)cc2)C1 (stereo unspecified) [US20250289799, Example 80] | 26 nM |
| COc1cc(-c2nc(C(F)(F)F)cn2C)ccc1CNc1nc(-c2ccccc2C(C)C)nc2ccoc12 [US20250289799, Example 81] | 3.7 nM |
| COc1cc(CNc2nc(-c3ccccc3C(C)C)nc3ccoc23)ccc1-c1nc(C(F)(F)F)cn1C [US20250289799, Example 82] | 1.7 nM |
| COc1cc(-n2nc(C(F)(F)F)cc2C)ccc1CNc1nc(-c2ccccc2C(C)C)nc2ccoc12 [US20250289799, Example 83] | 4.4 nM |
| COc1cc(CNc2nc(-c3ccccc3C(C)C)nc3ccoc23)ccc1-n1nc(C(F)(F)F)cc1C [US20250289799, Example 84] | 9 nM |
| C#Cc1cnc(-c2ccccc2C(C)C)nc1NCc1ccc(-c2nc(C(F)(F)F)cn2C)cc1 [US20250289799, Example 85] | 0.47 nM |
| CC(C)c1ccccc1-c1ncc(OC(F)F)c(NCc2ccc(-c3nc(C(F)(F)F)cn3C)cc2)n1 [US20250289799, Example 86] | 1.1 nM |
| CC(C)c1ccccc1-c1ncc(N2CCOCC2)c(NCc2ccc(-c3nc(C(F)(F)F)cn3C)cc2)n1 [US20250289799, Example 87] | 6.2 nM |
| CC(C)c1ccccc1-c1ncc(N2CCN(C)CC2)c(NCc2ccc(-c3nc(C(F)(F)F)cn3C)cc2)n1 [US20250289799, Example 88] | 10 nM |
| COC(=O)Cc1cnc(-c2ccccc2C(C)C)nc1NCc1ccc(-c2nc(C(F)(F)F)cn2C)cc1 [US20250289799, Example 91] | 1.3 nM |
| COc1cnc(-c2c(OC)ncnc2C2CC2)nc1N(C)CC1CCN(c2nc(C(F)(F)F)cn2C)CC1 [US20250289799, Example 92] | 3.3 nM |
| COc1cnc(-c2c(OC)ncnc2C2CC2)nc1N(C)Cc1ccc(-c2nc(C(F)(F)F)cn2C(C)C)cc1 [US20250289799, Example 93] | 1.5 nM |
| COc1cnc(-c2c(OC)ncnc2C2CC2)nc1NCc1ccc(-c2ccccn2)cc1 [US20250289799, Example 94] | 6.5 nM |
| COc1cnc(-c2c(OC)ncnc2C2CC2)nc1NCC1CCN(c2nc(C(F)(F)F)cn2C)CC1 [US20250289799, Example 95] | 8.4 nM |
| COc1cnc(-c2c(OC)ncnc2C2CC2)nc1NCc1ccc(-c2nc(C(F)(F)F)cn2C)cc1 [US20250289799, Example 96] | 4.8 nM |
| COc1cnc(-c2c(OC)ncnc2C2CC2)nc1NCc1ccc2c(c1)CCN(C(C)C)C2=O [US20250289799, Example 97] | 263 nM |
| COc1cnc(-c2c(OC)ncnc2C2CC2)nc1NCc1ccc(OCc2ccccn2)cc1 [US20250289799, Example 98] | 144 nM |
| CCOCCOc1ccc(CNc2nc(-c3c(OC)ncnc3C3CC3)ncc2OC)cc1 [US20250289799, Example 99] | 15.1 nM |
| COc1cc(-c2nc(C(F)(F)F)cn2C)ccc1CNc1nc(-c2c(OC)ncnc2C2CC2)ncc1OC [US20250289799, Example 100] | 4.1 nM |
